Reference: patent US20050112696A1, “Compositions, methods and assays related to secretase cleavage specificity” (The University of Texas Southwestern Medical Center, priority 2003, published 2005)
Entries after “also recorded” stand apart in the source; their conditions may differ.

Key:
γ-secretase = test: Immunoblotting of C-terminal fragments (CTFs) in transfected HEK293 cells; format: cell-based
Method: HEK293, HeLa and COS7 cells were transfected at 50 to 80% confluency in 6-well plates using Fugene6 reagent (Roche). For Ga14-Tip60 transactivation assays, HEK293 cells were co-transfected with five plasmids: (1) pG5E1B-luc=0.15 μg; (2) pCMV-LacZ=0.10 μg; (3) pM-Tip60=0.5 μg; (4) pCMV-FE65=0.5 μg; and (5) 0.05-1.0 μg pCMV-APP, 0.025-0.5 μg pCMV-Sport6-APLP1, or 0.05-1.0 μg pcDNA3.1-APLP2 as indicated. For the Fe65 titration experiments, HEK293 cells were cotransfected with five plasmids: (1) pG5E1B-luc=0.15 μg; (2) pCMV-LacZ=0.10 μg; (3) pM-Tip60=0.5 μg; (4) 0.5 μg of APP, 0.25 μg of APLP1, or 0.5 μg of APLP2; and (5) 0-2.0 μg pCMV-Fe65. Cells were harvested 2 days after transfection in 0.25 ml/well of reporter lysis buffer (Promega), and their Luciferase and β-galctosidase activities were determined with the Promega luciferase assay kit using a chemiluminescence reader from Berthold, and with the O-nitrophenyl-D-galacto-pyranoside assay for β-galactosidase, respectively. The luciferase activity was standardized by the β-galactosidase activity to control for transfection efficiency and further normalized with the transactivation level with cells expressing no APPs or Fe65. Values shown are averages of transactivation assays performed in triplates. For immunoblotting analyses, HEK293 were transfected with 1 μg expression plasmids encoding APP, APLP1, APLP2, SynCam, or neurexin 1β, with or without 0.25 μg of BACE 1 expression vector. For APLP1 cleavage experiments, 1 μg of APLP1 or APP was cotransfected with BACE (0.25 μg and 0.5 μg) or ADAM 9 (0.5 μg and 1.0 μg) in HEK293, HeLa and COS cells. The cell extracts or media were harvested 24 hours after the transfection. Where indicated, γ-secretase inhibitor IX (DAPT; Calbiochem) was added (2 μM final concentration) 6 hrs before harvesting the cells.
SDS-PAGE and Immunoblotting experiments were performed using standard procedures well know to one of ordinary skill in the are with either regular SDS gels or tricine gels. Lanes were loaded with ˜20 μg of protein from whole cell extracts harvested in sample buffer, and analysed by immunoblotting after SDS-PAGE using antibody dilutions of 1:1,000-2,000 for primary and 1:10,000 HRP conjugated goat-anti-rabbit secondary antibodies (ICN). For immunoblotting analysis of secreted proteins, supernatants from transfected cells (30 μl with approximately 5 μg protein) were loaded per lane.
In the next set of experiments these antibodies were employed to probe for APP, APLP1, and APLP2 cleavage in cells that either expressed these proteins alone or in combination with BACE 1 (FIG. 4). As negative controls, two other neuronal cell-surface proteins, […] (Nrx1β) and SynCAM (36,37,39) were examined. For each of the five proteins studied, six conditions were investigated: HEK293 control cells (lane 1), transfected cells only expressing BACE 1 (lane 2), or cells transfected either with APP, APLP1, APLP2, neurexin 1β (Nrx1β), or SynCAM alone (lanes 3 and 5) or together with BACE 1 (lanes 4 and 6) were incubated in the absence (lanes 1-4) or presence of the γ-secretase inhibitor DAPT ([…]; lanes 5-6). Transfected proteins (indicated on the right) were examined by immunoblotting (20 μg cell protein/lane) using regular SDS-PAGE (top panel for each protein) to monitor the full-length proteins (FL), or by tricine gel electrophoresis to detect their CTFs (bottom panel for each protein). […]

[1] = system: Ga14-Tip60 dependent transcription mediated by APLP1 (γ-secretase cleavage); test: Ga14-Tip60 transactivation assay, cells co-transfected with APLP1 and Fe65; format: cell-based; conditions: HEK293 cells; DAPT 2 and 10 μM; inhibition was incomplete; FIG. 2C
Method: (§1) HEK293, HeLa and COS7 cells were transfected at 50 to 80% confluency in 6-well plates using Fugene6 reagent (Roche). For Ga14-Tip60 transactivation assays, HEK293 cells were co-transfected with five plasmids: (1) pG5E1B-luc=0.15 μg; (2) pCMV-LacZ=0.10 μg; (3) pM-Tip60=0.5 μg; (4) pCMV-FE65=0.5 μg; and (5) 0.05-1.0 μg pCMV-APP, 0.025-0.5 μg pCMV-Sport6-APLP1, or 0.05-1.0 μg pcDNA3.1-APLP2 as indicated. For the Fe65 titration experiments, HEK293 cells were cotransfected with five plasmids: (1) pG5E1B-luc=0.15 μg; (2) pCMV-LacZ=0.10 μg; (3) pM-Tip60=0.5 μg; (4) 0.5 μg of APP, 0.25 μg of APLP1, or 0.5 μg of APLP2; and (5) 0-2.0 μg pCMV-Fe65. Cells were harvested 2 days after transfection in 0.25 ml/well of reporter lysis buffer (Promega), and their Luciferase and β-galctosidase activities were determined with the Promega luciferase assay kit using a chemiluminescence reader from Berthold, and with the O-nitrophenyl-D-galacto-pyranoside assay for β-galactosidase, respectively. […]
(§2) For all three proteins (APP, APLP1, and APLP2), a bell-shaped dose-response curve of transactivation that depended on APP or an APLP was observed (FIG. 2A). […] Again, a dose-dependent, highly specific transactivation of Ga14-dependent transcription was detected. […]

[2] = system: Ga14-Tip60 dependent transcription mediated by APP (γ-secretase cleavage); test: Ga14-Tip60 transactivation assay, cells co-transfected with APP and Fe65; format: cell-based; conditions: HEK293 cells; DAPT 2 and 10 μM; inhibition was incomplete; FIG. 2C
Method: as §1, §2

[3] = system: Ga14-Tip60 dependent transcription mediated by APLP2 (γ-secretase cleavage); test: Ga14-Tip60 transactivation assay, cells co-transfected with APLP2 and Fe65; format: cell-based; conditions: HEK293 cells; DAPT 2 and 10 μM; inhibition was incomplete; FIG. 2C
Method: as §1, §2

[4] = system: central APP domain (CAD) of APP, APLP1 and APLP2; test: F-spondin binding to the central APP domain (CAD); conditions: extracellular ligand; reelin domain or reelin and spondin domains sufficient
[5] = biological target: β-secretase cleavage sites of APP (Homo sapiens, UniProt P05067); test: Effect of F-spondin binding on β-secretase cleavage of APP
Sequence of β-secretase cleavage sites of APP (P05067 18-770): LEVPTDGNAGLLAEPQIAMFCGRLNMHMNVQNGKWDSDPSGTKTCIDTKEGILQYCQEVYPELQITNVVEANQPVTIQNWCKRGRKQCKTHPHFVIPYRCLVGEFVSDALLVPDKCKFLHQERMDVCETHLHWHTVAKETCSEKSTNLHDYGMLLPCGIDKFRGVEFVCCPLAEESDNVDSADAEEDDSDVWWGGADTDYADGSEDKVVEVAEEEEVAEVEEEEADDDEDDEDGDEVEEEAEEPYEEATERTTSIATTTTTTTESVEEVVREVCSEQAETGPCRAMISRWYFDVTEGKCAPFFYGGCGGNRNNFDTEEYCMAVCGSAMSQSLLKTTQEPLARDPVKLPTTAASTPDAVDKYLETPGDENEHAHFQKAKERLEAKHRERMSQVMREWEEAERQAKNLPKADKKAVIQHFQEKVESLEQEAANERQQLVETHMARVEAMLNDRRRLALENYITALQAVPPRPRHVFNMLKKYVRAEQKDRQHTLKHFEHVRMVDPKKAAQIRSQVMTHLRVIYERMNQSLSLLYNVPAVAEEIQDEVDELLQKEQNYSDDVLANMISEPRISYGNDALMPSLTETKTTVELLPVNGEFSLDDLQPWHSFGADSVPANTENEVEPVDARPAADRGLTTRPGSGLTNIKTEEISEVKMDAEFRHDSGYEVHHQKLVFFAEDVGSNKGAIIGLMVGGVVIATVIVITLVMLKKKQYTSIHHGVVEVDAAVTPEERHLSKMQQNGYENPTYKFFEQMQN

Molecule	CTFs of APLP1 upon DAPT treatment (γ-secretase; HEK293 cells transfected with APLP1, with or without BACE 1, DAPT (2 mM [sic]), FIG. 4)	CTFs of APLP2 upon DAPT treatment (γ-secretase; HEK293 cells transfected with APLP2, with or without BACE 1, DAPT (2 mM [sic]), FIG. 4)	CTFs of APP upon DAPT treatment (γ-secretase; HEK293 cells transfected with APP, with or without BACE 1, DAPT added 6 hrs before harvesting, tricine gel immunoblot)	CTFs of neurexin 1β/APP hybrid upon DAPT treatment (γ-secretase; HEK293 cells transfected with Nrx1β/APP hybrid, with or without BACE 1, FIG. 6B)	CTFs of neurexin 1β upon DAPT treatment (γ-secretase; HEK293 cells transfected with neurexin 1β, DAPT (2 mM [sic]), said to be most likely an artifact, FIG. 4)	inhibition of transactivation mediated by APLP1 [1]	inhibition of transactivation mediated by APP [2]	inhibition of transactivation mediated by APLP2 [3]	binding to the central APP domain (CAD) of APP, APLP1 and APLP2 [4]	effect of binding on cleavage at the β-secretase cleavage sites [5]
C[C@H](NC(=O)Cc1cc(F)cc(F)c1)C(=O)N[C@H](C(=O)OC(C)(C)C)c1ccccc1 [DAPT]	very abundant	very abundant	very abundant; also recorded: massive accumulation of CTFs	massive accumulation of CTFs	CTFs were also observed	Significant inhibition	Significant inhibition	Significant inhibition	–	–
F-spondin: secreted multi-domain protein that promotes neural cell adhesion and neurite extension; extracellular ligand of APP (protein, UniProt Q9HCB6 29-807, looked up) Spondin-1: FSDETLDKVPKSEGYCSRILRAQGTRREGYTEFSLRVEGDPDFYKPGTSYRVTLSAAPPSYFRGFTLIALRENREGDKEEDHAGTFQIIDEEETQFMSNCPVAVTESTPRRRTRIQVFWIAPPAGTGCVILKASIVQKRIIYFQDEGSLTKKLCEQDSTFDGVTDKPILDCCACGTAKYRLTFYGNWSEKTHPKDYPRRANHWSAIIGGSHSKNYVLWEYGGYASEGVKQVAELGSPVKMEEEIRQQSDEVLTVIKAKAQWPAWQPLNVRAAPSAEFSVDRTRHLMSFLTMMGPSPDWNVGLSAEDLCTKECGWVQKVVQDLIPWDAGTDSGVTYESPNKPTIPQEKIRPLTSLDHPQSPFYDPEGGSITQVARVVIERIARKGEQCNIVPDNVDDIVADLAPEEKDEDDTPETCIYSNWSPWSACSSSTCDKGKRMRQRMLKAQLDLSVPCPDTQDFQPCMGPGCSDEDGSTCTMSEWITWSPCSISCGMGMRSRERYVKQFPEDGSVCTLPTEETEKCTVNEECSPSSCLMTEWGEWDECSATCGMGMKKRHRMIKMNPADGSMCKAETSQAEKCMMPECHTIPCLLSPWSEWSDCSVTCGKGMRTRQRMLKSLAELGDCNEDLEQVEKCMLPECPIDCELTEWSQWSECNKSCGKGHVIRTRMIQMEPQFGGAPCPETVQRKKCRIRKCLRNPSIQKLRWREARESRRSEQLKEESEGEQFPGCRMRPWTAWSECTKLCGGGIQERYMTVKKRFKSSQFTSCKDKKEIRACNVHPC	–	–	–	–	–	–	–	–	binds	inhibits the cleavage
